Test results reported in US20070225344A1, “Sulfonamide derivatives to treat infection with hepatitis C virus” (priority 2006, published 2007).

Biological target: T1, HCV RdRp NS5B d21BK (BK strain, 1b subtype) (Hepatitis C virus genotype 1b, UniProt P26663)
T1 construct: NS5B from the BK strain (1b subtype) is expressed in E. coli as a protein in which the 21 C-terminal amino acids are replaced; made in house; host or cells: E. coli
Experiment: HCV polymerase (NS5B) RNA-dependent RNA polymerase inhibition, 33P-GTP filter assay
Type: biochemical
Details: in vitro; NS5B BK strain (1b subtype), 24 nM enzyme, 2 h at room temperature; read-out: HCV Polymerase Median IC50
Text: The ability of the compounds of the present invention to inhibit hepatitis C polymerase was established by the following experimental procedure:
NS5B from the BK strain (1b subtype) is expressed in E. coli as a protein in which the 21 C-terminal amino acids are replaced with a short linker and a hexahistidine tag (GSHHHHHH). The purified protein is mixed with radioactive nucleotides and allowed to replicate a heteropolymeric RNA substrate, primed by an endogenous short hairpin, resulting in an approximately 760 nt product. The radioactive product is captured on a filter and quantitated after removal of the unincorporated nucleotides.
(1) Compounds 10 μl at 10 μg/ml in 15% DMSO
Add 20 μl enzyme mix into each well of the assay plate. Incubate compound and enzyme at room temperature for 15 minutes.
(3) Template Mix—Prepare Ahead.
Spin down a tube of RNA (5 μg/tube stored in 75% ethanol and 0.3 M sodium acetate) in a microcentrifuge for 20 min. at 4° C. One tube is enough for 1 to 1½ plates. Remove as much ethanol from the tube as possible by inverting the tube. Be gentle, pellet RNA may not adhere to the tube. Vacuum dry the RNA. Resuspend the RNA by adding 1 ml of DEPC water, close the cap of the tube tightly. To dissolve RNA, incubate RNA solution on ice for ˜60 min. and gently vortex. Spin briefly to ensure all RNA solution is down to the bottom of the tube before opening cap. Gently transfer RNA solution into a 5 ml or larger tube. Add another 3 ml of DEPC water (total 4 ml of volume).
Add the following volumes of reagents.
Add 20 μl template mix per reaction (i.e. 20 ng of POF per reaction or ˜3 nM)
(4) Incubate reaction at room temperature (22-25° C.) for 2 hours.
(5) Stop reaction by adding 50 μl of 170 mM EDTA.
Final concentration of EDTA is 85 mM.
(6) Prewet filters of Millipore Multiscreen filter plate by adding 200 μl of 0.5 M sodium phosphate buffer, pH 7.0 into each well. Let stand at room temperature for 2-3 min.
(7) Place the Multiscreen filter plate onto a Millipore Manifold and turn on vacuum to allow buffer to flow through. Turn off vacuum. Transfer 80 μl of the reaction product into each well of the filter plate. Let stand for 2-3 min. Turn on vacuum to filter reaction product.
(8) Turn off vacuum. Add 200 μl of 0.5 M sodium phosphate buffer, pH 7.0 into each well to wash filter. Turn on vacuum.
Repeat step (8) three more times.
(9) Remove polypropylene bottom. Spot dry filter at the bottom with paper towel. Air dry filter plate on a bench for 1 hr. Add 40 μl Super Mix scintillant. Seal top of the plate with a tape. Place plate into a Packard carrier or MicroBeta carrier.
(10) Count plate using a Packard Topcount or MicroBeta counter. Program 10 for ^33P in Top count or ^33P program in micro-beta.
Percent inhibition is calculated after background subtraction as a percent reduction of activity relative to the positive control (average value of the plate excluding the negative controls).

T1 sequence (P26663 2420-2997, looked up, natural form): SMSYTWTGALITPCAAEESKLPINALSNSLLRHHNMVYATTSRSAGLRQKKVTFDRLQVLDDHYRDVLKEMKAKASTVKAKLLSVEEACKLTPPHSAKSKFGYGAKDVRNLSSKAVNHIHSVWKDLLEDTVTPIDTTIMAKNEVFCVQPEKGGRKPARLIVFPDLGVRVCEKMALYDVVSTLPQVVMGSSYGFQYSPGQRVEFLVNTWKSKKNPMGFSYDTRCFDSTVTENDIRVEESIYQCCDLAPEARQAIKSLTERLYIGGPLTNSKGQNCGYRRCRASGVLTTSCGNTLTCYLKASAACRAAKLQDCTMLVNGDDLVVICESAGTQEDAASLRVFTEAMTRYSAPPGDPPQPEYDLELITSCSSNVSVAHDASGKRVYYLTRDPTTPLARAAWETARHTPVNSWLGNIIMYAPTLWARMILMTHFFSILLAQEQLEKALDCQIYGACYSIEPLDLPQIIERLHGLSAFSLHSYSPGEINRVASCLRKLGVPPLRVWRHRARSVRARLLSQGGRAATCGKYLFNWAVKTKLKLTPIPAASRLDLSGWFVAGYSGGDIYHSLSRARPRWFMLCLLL

First: Cc1cc(S(=O)(=O)N2CSC[C@H]2C(=O)O)c(N)cc1Cl [Example 54, (4R)-3-[(2-amino-4-chloro-5-methylphenyl)sulfonyl]-1,3-thiazolidine-4-carboxylic acid]
Second: Cc1cc(N)c(S(=O)(=O)N2CSC[C@@H]2C(=O)O)cc1Cl [Example 53, (4S)-3-[(2-amino-5-chloro-4-methylphenyl)sulfonyl]-1,3-thiazolidine-4-carboxylic acid]
The IC50 of the first is 1.6-fold higher: 4750 nM for the first, 3050 nM for the second.

First: Cc1cc(S(=O)(=O)N2C[C@H](O)C[C@H]2C(=O)O)c(N)cc1Cl [Example 28, (4R)-1-[(2-amino-4-chloro-5-methylphenyl)sulfonyl]-4-hydroxy-L-proline]
Second: Cc1cc(S(=O)(=O)N2C[C@@H](O)C[C@@H]2C(=O)O)c(N)cc1Cl [Example 24, (4S)-1-[(2-amino-4-chloro-5-methylphenyl)sulfonyl]-4-hydroxy-D-proline]
The IC50 of the first is 2-fold higher: 10000 nM for the first, 5100 nM for the second. The second is the more potent here.

First: O=C(c1ccccc1)[C@@H]1CCCN1S(=O)(=O)c1cc(Cl)cc(Cl)c1O [Example 30, {(2S)-1-[(3,5-dichloro-2-hydroxyphenyl)sulfonyl]pyrrolidin-2-yl}(phenyl)methanone]
Second: O=C(O)[C@@H]1CCCN1S(=O)(=O)c1cc(Cl)c(Cl)c(Cl)c1O [Example 4, 1-[(3,4,5-trichloro-2-hydroxyphenyl)sulfonyl]-L-proline]
The IC50 of the first is 94-fold higher: 7520 nM for the first, 80 nM for the second.

`O=C(O)[C@@H]1C[C@@H](O)CN1S(=O)(=O)c1cc(Cl)cc(Br)c1O` [Example 7, (4R)-1-[(3-bromo-5-chloro-2-hydroxyphenyl)sulfonyl]-4-hydroxy-L-proline] and `O=C(O)[C@@H]1C[C@@H](O)CN1S(=O)(=O)c1cc(Cl)cc(Cl)c1O` [Example 10, (4R)-1-[(3,5-dichloro-2-hydroxyphenyl)sulfonyl]-4-hydroxy-L-proline] are within 1.5-fold of each other in IC50: 470 nM for the first, 670 nM for the second.

Going from `O=S(=O)(c1cc(Cl)cc(Cl)c1O)N1CCCC1` [Example 23, 2,4-dichloro-6-(pyrrolidin-1-ylsulfonyl)phenol] to `O=C(O)[C@@H]1CSCN1S(=O)(=O)c1cc(Cl)cc(Cl)c1O` [Example 47, (4R)-3-[(3,5-dichloro-2-hydroxyphenyl)sulfonyl]-1,3-thiazolidine-4-carboxylic acid], the IC50 falls from 4850 nM to 240 nM (20-fold). The second is the more potent here.

Compared with `O=C(O)[C@H]1CCCCN1S(=O)(=O)c1cc(Cl)c(Cl)c(Cl)c1O` [Example 38, (2R)-1-[(3,4,5-trichloro-2-hydroxyphenyl)sulfonyl]piperidine-2-carboxylic acid], `O=C(O)[C@@H]1CCCCN1S(=O)(=O)c1cc(Cl)c(Cl)c(Cl)c1O` [Example 37, (2S)-1-[(3,4,5-trichloro-2-hydroxyphenyl)sulfonyl]piperidine-2-carboxylic acid] is 4.8-fold lower in IC50: 380 nM for the first, 80 nM for the second.

First: Cc1cc(NC(=O)C2CC2)c(S(=O)(=O)N2CCC[C@H]2C(=O)O)cc1Cl [Example 33, 1-({5-chloro-2-[(cyclopropylcarbonyl)amino]-4-methylphenyl}sulfonyl)-L-proline]
Second: O=C(O)[C@@H]1CCCN1S(=O)(=O)c1cc(Cl)c(Cl)cc1Cl [Example 36, 1-[(2,4,5-trichlorophenyl)sulfonyl]-L-proline]
The IC50 of the first is 2.5-fold lower: 8680 nM for the first, 21900 nM for the second.

Going from `O=C(O)[C@H]1C[C@H](O)CN1S(=O)(=O)c1cc(Cl)c(Cl)c(Cl)c1O` [Example 15, (4S)-4-hydroxy-1-[(3,4,5-trichloro-2-hydroxyphenyl)sulfonyl]-D-proline] to `O=C(O)[C@@H]1CSCN1S(=O)(=O)c1cc(Cl)c(Cl)c(Cl)c1O` [Example 45, (4R)-3-[(3,4,5-trichloro-2-hydroxyphenyl)sulfonyl]-1,3-thiazolidine-4-carboxylic acid], the IC50 falls from 1220 nM to 50 nM (24-fold).

Compared with `O=C(O)[C@@H]1CCCCN1S(=O)(=O)c1cc(Cl)cc(Br)c1O` [Example 39, (2S)-1-[(3-bromo-5-chloro-2-hydroxyphenyl)sulfonyl]piperidine-2-carboxylic acid], `Cc1ccc(S(=O)(=O)N2CCC[C@H]2C(=O)O)cc1Cl` [Example 35, 1-[(3-chloro-4-methylphenyl)sulfonyl]-L-proline] is 23-fold higher in IC50: 450 nM for the first, 10200 nM for the second.
